# Results as given in patent US12377086B2, “Therapeutic methods, combinations and kits” (priority 2021, dated 2025).
# Read-outs that look alike come from different tables or passages of the source.
# Key:
# E. coli = assay type: cell-based, Escherichia coli
# Method: (§1) The optical density of the cell cultured was monitored at 600 nm (OD600 nm). The cells were cultured on 0.8 g/100 ml nutrient agar plate at pH 7.0 and 37° C. […] An overnight culture of the bacterial strain was sub-cultured to 0.06 OD600 nm into the NB medium and was then seeded at max 200 μl into the wells of a 96 well microtiter plate. Samples were then incubated at 37° C. and shaken at 200 rpm for 18 h. The absorbance was measured on an ELIZA plate reader and analyzed with the Gen5™ software suite (version 1.08).
# (§2) • The data are reported as relative percentage growth compared to untreated cells.
# VIM-2 expressing E. coli = assay type: cell-based, Escherichia coli; conditions: single dose; for VIM-2 expressing E. coli Amox (+) relative percentage growth compared to untreated cells: with 50 μM amoxicillin
# Method: as §1, §2
# NDM-1 [1] = target: T1, NDM-1 (Klebsiella pneumoniae, UniProt C7C422)
# Method: Nitrocefin (Cayman, CAS 41906-86-9) was used as the chromogenic substrate for all biochemical assays. […] The rate of product formation was monitored based on the λmax=486 nm absorbance taken at 10 s intervals for 30 mins. […] Velocity versus substrate concentration curves were fitted by nonlinear regression using Michaelis-Menten Enzyme kinetics with Graphpad Prism 6.
# VIM-2 [2] = conditions: reported previously, cited from earlier work
# NDM-1 [3] = target: T1, NDM-1; test: biochemical; conditions: read-out: NDM-1 percentage inhibition, 50 μM compound, 5 nM MBL, 10 μM nitrocefin, 30 mins
# Method: BL21 (DE3) E. coli cells containing the pET26b-ndm-1 plasmid were used to inoculate a 50 mL LB starter culture containing kanamycin (25 μg/mL). The culture was grown overnight at 37° C. The starter culture was then used to inoculate 4×1 L LB containing kanamycin (25 μg/mL). These flasks were incubated at 37° C. until culture reached an optical density of (OD600) of 0.6 to 0.8. The incubator was then set to 22° C. and the cultures were shaken for 30 min to allow them to cool. ZnCl2 ([…]) and IPTG (0.5 mM) were then added to the cultures and they were grown for 18 h at 22° C. The cells were then harvested using centrifugation (8000×g) for 10 min. The pellet was resuspended with 25 mL 50 mM HEPES, pH 7.5 containing 500 mM NaCl (Buffer B). Lysis was performed with three passes through a French Press. The lysate was centrifuged for 30 min (15,000×g) at 4° C. The supernatant was then dialyzed versus 2 L 50 mM HEPES, pH 7.5 (Buffer C) for 4 h. An FPLC was used to equilibrate a Q-Sepharose column using buffer C using a flowrate of 2.0 mL/min for 1.5 h. The lysate was then loaded onto the column and eluted with a linear NaCl gradient from 0-500 mM. Fractions containing NDM-1 were identified with SDS-PAGE. These fractions were pooled and concentrated to 2-3 mL in an Amicon ultracentrifugation concentrating unit with a YM-10 membrane. The resulting protein mixture was then loaded onto a Sephacryl S-200 gel filtration column run with 50 mM HEPES, pH 7.5 containing 150 mM NaCl (Buffer A). SDS-PAGE was used to identify fractions containing pure protein.
# To identify potential MBL inhibitors, the relative change in the formation of hydrolyzed nitrocefin between treated and untreated MBL was determined as percentage inhibition. 5 nM of each BML was pre-incubated for 10 mins with 50 μM of each compound, followed by the addition of 10 μM nitrocefin.
# Each MBL was incubated with 50 μM of each compound, followed by the addition of nitrocefin. The relative change in absorbance is reported as percentage inhibition.
# VIM-2 [4] = target: VIM-2 (Pseudomonas aeruginosa, UniProt Q5U7L7); conditions: after incubation with inhibitor and dialysis
# Method: VIM-2 was diluted to 6 μM with 50 mM HEPES, pH 7.5, containing 150 mM NaCl. The diluted protein solution was used to make several 5 mL aliquots. […] One aliquot contained one molar equivalent of inhibitor (6 μM), with respect to enzyme concentration, and the second aliquot contained two molar equivalents (12 μM). One aliquot contained no inhibitor. Each aliquot was then incubated for 4 h at 4° C. Following incubation, each aliquot was dialyzed versus 500 mL of 50 mM HEPES, pH 7.5, for 4 h at 4° C. The aliquots were analyzed using ICP-AES, as previously described REF. The emission wavelengths used were 213.856, 238.892, 259.940, 231.604, and 324.754 nm for Zn, Co, Fe, Ni, and Cu, respectively.
# To further address the mode of action of 8-hydroxyquinolines, equilibrium dialysis experiments were conducted. […] EDTA, a well-known metal scavenger, inhibits all MBLs through a chelation mechanism (Bush, K.; Jacoby, G. A. Updated Functional Classification of beta-Lactamases. Antimicrobial Agents and Chemotherapy 2010, 54, 969-976).
# T1 sequence (C7C422 whole entry, looked up, species assumed): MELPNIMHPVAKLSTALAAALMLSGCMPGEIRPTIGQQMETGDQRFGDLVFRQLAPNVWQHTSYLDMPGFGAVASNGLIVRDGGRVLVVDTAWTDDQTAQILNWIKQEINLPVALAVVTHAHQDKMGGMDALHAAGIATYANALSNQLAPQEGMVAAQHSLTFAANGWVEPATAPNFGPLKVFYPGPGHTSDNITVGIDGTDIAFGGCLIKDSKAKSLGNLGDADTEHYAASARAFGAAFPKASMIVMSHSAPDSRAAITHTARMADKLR
smiles,measurement,setting,value
"CC1(C)S[C@@H]2[C@H](NC(=O)[C@H](N)c3ccc(O)cc3)C(=O)N2[C@H]1C(=O)O [Amox, amoxicillin]",E. coli Amox (+) relative percentage growth compared to untreated cells,E. coli,3.6%
same,growth inhibition of wild type E. coli,E. coli,over 96%
same,VIM-2 expressing E. coli Amox (+) relative percentage growth compared to untreated cells,VIM-2 expressing E. coli,77%
"O=C(O)[C@H]1/C(=C/CO)O[C@@H]2CC(=O)N21 [Clav, Clavulanate]",E. coli Amox (+) relative percentage growth compared to untreated cells,"E. coli; wild type E. coli, single dose, with 50 μM amoxicillin",2.9%
same,E. coli Amox (−) relative percentage growth compared to untreated cells,"E. coli; wild type E. coli, single dose, without amoxicillin",86%
same,VIM-2 expressing E. coli Amox (+) relative percentage growth compared to untreated cells,VIM-2 expressing E. coli,57%
same,VIM-2 expressing E. coli Amox (−) relative percentage growth compared to untreated cells,VIM-2 expressing E. coli; without amoxicillin,93%
"O=C(Cc1cccs1)N[C@@H]1C(=O)N2C(C(=O)O)=C(/C=C/c3ccc([N+](=O)[O-])cc3[N+](=O)[O-])CS[C@H]12 [nitrocefin, Nitrocefin]","kcat, hydrolysis of nitrocefin by NDM-1",NDM-1 [1],25 s⁻¹
same,Km,"NDM-1 [1]; read-out: Km, hydrolysis of nitrocefin by NDM-1",2.2 µM
same,"kcat, hydrolysis of nitrocefin by VIM-2",VIM-2 [2],212 s⁻¹
same,Km,"VIM-2 [2]; read-out: Km, hydrolysis of nitrocefin by VIM-2",23 µM
"C[C@H](CS)C(=O)N1CCC[C@H]1C(=O)O [Compound 1, L-captopril, reference compound]",inhibition at 50 µM,NDM-1 [3],93%
same,metal content of VIM-2 / removal of Zn(II) from the active site,VIM-2 [4],relatively unaffected
O=C(O)CN(CCN(CC(=O)O)CC(=O)O)CC(=O)O [EDTA],Zn(II) removed from VIM-2,VIM-2 [4],1 equivalent of Zn(II)
